Results as given in patent US20210138025A1, “CATIONIC PEPTIDES WITH IMMUNOMODULATORY AND/OR ANTI-BIOFILM ACTIVITIES” (priority 2018, published 2021).

Tests used:
MCP-1 = MCP-1 chemokine induction in human PBMCs, ELISA (Tables 6, 7; FIGS. 6-9, 13); format: cell-based; conditions: SPOT synthesized control peptides, determined as in Table 6; Table 7
Method: Venous blood (20 ml) from healthy volunteers was collected in Vacutainer® collection tubes containing sodium heparin as an anticoagulant (Becton Dickinson, Mississauga, ON) in accordance with UBC ethical approval and guidelines. Blood was diluted 1:1 with complete RPMI 1640 medium and separated by centrifugation over a Ficoll-Paque® Plus (Amersham Biosciences, Piscataway, N.J., USA) density gradient. White blood cells were isolated from the buffy coat, washed twice in PBS and then resuspended in RPMI 1640 complete medium (containing 10% fetal bovine serum), and the number of peripheral blood mononuclear cells (PBMC) was determined by Trypan blue exclusion. PBMCs (5×10^5) were seeded into 12-well tissue culture dishes (Falcon; Becton Dickinson) at 0.75-1×10^6 cells/ml at 37° C. in 5% CO2. The above conditions were chosen to mimic conditions for circulating blood monocytes entering tissues at the site of infection via extravasation.
Following incubation of the cells under various treatment regimens, the tissue culture supernatants were centrifuged at 1000×g for 5 min, then at 10,000×g for 2 min to obtain cell-free samples. Supernatants were aliquoted and then stored at −20° C. prior to assay for various chemokines by capture ELISA (eBioscience and BioSource International Inc., CA, USA respectively)

S. aureus (MRSA SAP0017) = format: cell-based, Staphylococcus aureus; conditions: SPOT synthesized control peptides, determined as in Table 5; Table 7
Summary of the method: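 Static biofilm assay: 1/100 dilutions of overnight cultures grown with peptide at varying concentrations, added at time zero, in BM2 biofilm medium or tryptic soy broth plus 1% glucose in polypropylene plates. After 22-46 h, adherent biofilm stained with crystal violet and absorbance read at 595 nm.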

IL-1β = experiment: Suppression of LPS-induced IL-1β production in human PBMCs, ELISA (Tables 6, 7; FIGS. 6-9, 13); conditions: SPOT synthesized control peptides, determined as in Table 6; Table 7

Substance	MCPI production in PBMC (MCP-1) [pg/mL]	% Biofilm Inhibition (S. aureus (MRSA SAP0017)) [%]	Fold Change in IL1-β relative to untreated LPS-stimulated cells (IL-1β)
C26 (VWLAQKIGKWIW) [Peptide C26]	1153	100	1.41
C20 (KLLGILKQAIVV) [Peptide C20]	106	100	0.78
C14 (VKAKRWKWAQLA) [Peptide C14]	209	104	1.2
C29 (VIAKIVLLRAGL) [Peptide C29]	1809	100	0.99
C12 (VIRAKAVWGWVK) [Peptide C12]	498	104	1.01
C50 (IKIVRRAKIIIW) [Peptide C50]	222	94	0.91
C30 (RGARVIRWKLRR) [Peptide C30]	1153	100	1.23
C13 (VARAVQKRWRKK) [Peptide C13]	221	105	1.55
C41 (KAVAGARQRWAL) [Peptide C41]	353	101	0.82
C57 (KGKIRKIVLIRR) [Peptide C57]	157	102	0.9
C35 (IILKRVQVQKIK) [Peptide C35]	481	101	1.1
C39 (KIKLIQKQLRIK) [Peptide C39]	286	98	0.84
C51 (VKWKGKVIVVQL) [Peptide C51]	862	79	0.81
C27 (KKAIKVVAIGRI) [Peptide C27]	50	102	1.06
C43 (AVIVRAAKGGAR) [Peptide C43]	100	103	0.99
C46 (IQIWIIRVIWRW) [Peptide C46]	697	102	0.91
C53 (GKLKIKVKLGIA) [Peptide C53]	113	98	0.94
C25 (IGQVVLVKIKIA) [Peptide C25]	1762	98	1.21
C54 (QVVVKKKAIQVV) [Peptide C54]	651	101	0.95
C32 (QRWKKWKVLKLR) [Peptide C32]	1614	102	1.11
C37 (QQKVIRLLWKAK) [Peptide C37]	216	102	0.83
C33 (KIWLLKLRQRQK) [Peptide C33]	1685	102	1.23
